Test results as given in patent publication US20040162339A1, “Heterocyclic biaryl compounds, pharmaceutical and cosmetic compositions containing them and uses thereof” (priority 1996, published 2004).

Row | melting point [°C] | Structure (SMILES)
1 | 137 | CCCCCCC1(c2ccc3c(c2)C(C)(C)CCC3(C)C)COc2cc(C(=O)O)ccc21 (centres unmarked)
2 | 268 | CC1(C)CCC(C)(C)c2cc(C3(CC(=O)O)COc4cc(C(=O)O)ccc43)ccc21 (centres unmarked)
